# Experimental data published in article PMC8900595 (Journal of medicinal chemistry, 2021).
# Experiments:
# A549 cells = conditions: human
# A/WSN/33 = test: microbe, parasite or virus in culture; assay type: cell-based, influenza A virus
# WSN-PB2-Nanoluc virus = assay type: cell-based, influenza A virus
Compound,Cytotoxicity (MTT) CC10 (A549 cells) [µM],selectivity index (A/WSN/33),antiviral activity as described in SAR text (A/WSN/33),further results
"CCN(c1ccc(CCNC(C)=O)cc1)S(=O)(=O)c1cc(Cl)ccc1Cl [compound 28, N-(4-((2,5-Dichloro-N-ethylphenyl)sulfonamido)phenethyl)-acetamide]",>25,–,–,–
"CCN(c1ccccc1)S(=O)(=O)c1cc(Cl)ccc1Cl [compound 7, 2,5-Dichloro-N-ethyl-N-phenylbenzenesulfonamide]",>5,>6,–,loss of activity on removing the 2-methyl group (A/WSN/33): greater than 10 ×
"CCN(c1ccc(F)cc1F)S(=O)(=O)c1cccc(Cl)c1 [compound 32, 3-Chloro-N-(2,4-difluorophenyl)-N-ethylbenzenesulfonamide]",–,–,maintained activity,lower level of activity than 21 (A/WSN/33): 10 fold
"CCN(c1ccccc1C#N)S(=O)(=O)c1cc(Cl)ccc1Cl [compound 9, 2,5-Dichloro-N-(2-cyanophenyl)-N-ethylbenzenesulfonamide]",>5,>29,less effective,–
"Cc1cc(Cl)ccc1N(CCO)S(=O)(=O)c1cc(Cl)ccc1Cl [compound 17, 2,5-Dichloro-N-(4-chloro-2-methylphenyl)-N-(2-hydroxyethyl)benzenesulfonamide]",>5,–,lower activity,–
"CCN(c1ccc(F)cc1F)S(=O)(=O)c1cccc(Cl)c1Cl [compound 37, 2,3-Dichloro-N-(2,4-difluorophenyl)-N-ethylbenzenesulfonamide]",–,–,inactive,–
"CCN(c1ccc(F)cc1F)S(=O)(=O)c1ccccc1 [compound 30, N-(2,4-Difluorophenyl)-N-ethylbenzenesulfonamide]",–,–,inactive,–
"C=CCN(c1ccc(Cl)cc1C)S(=O)(=O)c1cc(Cl)ccc1Cl [compound 13, N-Allyl-2,5-dichloro-N-(4-chloro-2-methylphenyl)benzenesulfonamide]",>5,>135,generally more potent,–
"C#CCN(c1cccc(N=[N+]=[N-])c1)S(=O)(=O)c1cc(Cl)ccc1Cl [compound 54, N-(3-Azidophenyl)-2,5-dichloro-N-(prop-2-yn-1-yl)benzenesulfonamide]",–,–,–,activity under the assay conditions (WSN-PB2-Nanoluc virus): retained robust activity
"O=S(=O)(c1cc(Cl)ccc1Cl)N1CCCc2cc(Cl)ccc21 [compound 50, 6-Chloro-1-((2,5-dichlorophenyl)sulfonyl)-1,2,3,4-tetrahydroquinoline]",–,–,–,activity under the assay conditions (WSN-PB2-Nanoluc virus): inactive
"CCOC(=O)Cc1ccc(N(CC)S(=O)(=O)c2cc(Cl)ccc2Cl)cc1 [compound 24, Ethyl 2-(4-((2,5-Dichloro-N-ethylphenyl)sulfonamido)phenyl)-acetate]",>5,>63,–,–
"CCN(c1ccc(Cl)cc1F)S(=O)(=O)c1cc(Cl)ccc1Cl [compound 20, 2,5-Dichloro-N-(4-chloro-2-fluorophenyl)-N-ethylbenzenesulfonamide]",>5,>33,–,–
"CCN(c1ccc(F)cc1F)S(=O)(=O)c1ccc(Cl)cc1Cl [compound 33, 2,4-Dichloro-N-(2,4-difluorophenyl)-N-ethylbenzenesulfonamide]",–,–,inactive,–
"CCN(c1ccccc1Cl)S(=O)(=O)c1cc(Cl)ccc1Cl [compound 8, 2,5-Dichloro-N-(2-chlorophenyl)-N-ethylbenzenesulfonamide]",>5,>33,less effective,–
"COCCN(c1ccc(Cl)cc1C)S(=O)(=O)c1cc(Cl)ccc1Cl [compound 16, 2,5-Dichloro-N-(4-chloro-2-methylphenyl)-N-(2-methoxyethyl)-benzenesulfonamide]",>5,>4,lower activity,–
"CCN(c1ccc(F)cc1F)S(=O)(=O)c1ccccc1Cl [compound 31, 2-Chloro-N-(2,4-difluorophenyl)-N-ethylbenzenesulfonamide]",–,–,inactive,–
"Cc1ccccc1N(C)S(=O)(=O)c1cc(Cl)ccc1Cl [compound 3, 2,5-Dichloro-N-methyl-N-(o-tolyl)benzenesulfonamide]",>5,–,substantially diminished activity,–
"O=S(=O)(c1cc(Cl)ccc1Cl)N1CCc2cc(Cl)ccc21 [compound 49, 5-Chloro-1-((2,5-dichlorophenyl)sulfonyl)indoline]",–,–,–,activity under the assay conditions (WSN-PB2-Nanoluc virus): inactive
CCN(c1ccc(F)cc1)S(=O)(=O)c1cc(Cl)ccc1Cl [compound 10],>5,>74,similarly potent,–
"Cc1ccccc1NS(=O)(=O)c1cc(Cl)ccc1Cl [compound 2, 2,5-Dichloro-N-(o-tolyl)benzenesulfonamide]",>5,–,substantially diminished activity,–

Compound,Cytotoxicity (MTT) CC10 (A549 cells) [µM],selectivity index (A/WSN/33),antiviral activity as described in SAR text (A/WSN/33),further results
"CCN(c1ccc(CCO)cc1)S(=O)(=O)c1cc(Cl)ccc1Cl [compound 26, 2,5-Dichloro-N-ethyl-N-(4-(2-hydroxyethyl)phenyl)-benzenesulfonamide]",>25,–,–,–
"CCN(c1ccc(CCN)cc1)S(=O)(=O)c1cc(Cl)ccc1Cl [compound 27, N-(4-(2-Aminoethyl)phenyl)-2,5-dichloro-N-ethylbenzenesulfonamide]",>25,–,–,–
"CCN(c1ccc(F)cc1F)S(=O)(=O)c1c(Cl)cccc1Cl [compound 35, 2,6-Dichloro-N-(2,4-difluorophenyl)-N-ethylbenzenesulfonamide]",–,–,inactive,–
"CCN(c1ccc(F)cc1F)S(=O)(=O)c1ccc(Cl)c(Cl)c1 [compound 36, 3,4-Dichloro-N-(2,4-difluorophenyl)-N-ethylbenzenesulfonamide]",–,–,inactive,–
"CCN(c1ccc(CC(=O)N2CCN(C)CC2)cc1)S(=O)(=O)c1cc(Cl)ccc1Cl [compound 29, 2,5-Dichloro-N-ethyl-N-(4-(2-(4-methylpiperazin-1-yl)-2-oxoethyl)phenyl)benzenesulfonamide]",>25,–,–,–
"CCN(c1ccc(CC(=O)O)cc1)S(=O)(=O)c1cc(Cl)ccc1Cl [compound 25, 2-(4-((2,5-Dichloro-N-ethylphenyl)sulfonamido)phenyl)acetic Acid]",>25,–,–,–
"C=CCN(c1ccccc1C)S(=O)(=O)c1cc(Cl)ccc1Cl [compound 4, N-Allyl-2,5-dichloro-N-(o-tolyl)benzenesulfonamide]",>5,>42,–,–
"Cc1cc(Cl)ccc1N(CCF)S(=O)(=O)c1cc(Cl)ccc1Cl [compound 18, 2,5-Dichloro-N-(4-chloro-2-methylphenyl)-N-(2-fluoroethyl)-benzenesulfonamide]",>5,>9,lower activity,"IC50 (A/WSN/33; Influenza A virus, WSN, A549, 24 h, read-out: viral replication IC50): 0.55 µM"
"Cc1cc(Cl)ccc1N(C(F)F)S(=O)(=O)c1cc(Cl)ccc1Cl [compound 19, 2,5-Dichloro-N-(4-chloro-2-methylphenyl)-N-(difluoromethyl)benzenesulfonamide]",>5,>4,lower activity,–
"CCN(c1c(F)cc(Cl)cc1F)S(=O)(=O)c1cc(Cl)ccc1Cl [compound 23, 2,5-Dichloro-N-(4-chloro-2,6-difluorophenyl)-N-ethylbenzenesulfonamide]",–,>12,less active,–
"CCN(c1ccc(C)cc1)S(=O)(=O)c1cc(Cl)ccc1Cl [compound 11, 2,5-Dichloro-N-ethyl-N-(p-tolyl)benzenesulfonamide]",>25,>298,well tolerated,–
"Cc1ccccc1N(C(C)C)S(=O)(=O)c1cc(Cl)ccc1Cl [compound 6, 2,5-Dichloro-N-isopropyl-N-(o-tolyl)benzenesulfonamide]",>5,>3,–,loss of activity compared to compound 1 (A/WSN/33): greater than 10 fold
"C#CCCC1(CCOC(=O)Cc2ccc(N(CC)S(=O)(=O)c3cc(Cl)ccc3Cl)cc2)N=N1 [compound 53, 2-(3-(But-3-yn-1-yl)-3H-diazirin-3-yl)ethyl 2-(4-((2,5-Dichloro-Nethylphenyl)sulfonamido)phenyl)acetate]",–,–,–,activity under the assay conditions (WSN-PB2-Nanoluc virus): not active
"CCN(c1ccc(F)cc1F)S(=O)(=O)c1cc(Cl)cc(Cl)c1 [compound 34, 3,5-Dichloro-N-(2,4-difluorophenyl)-N-ethylbenzenesulfonamide]",–,–,–,less active than 1–55 (A/WSN/33): > 10 fold
"CCN(c1c(C)cc(Cl)cc1Cl)S(=O)(=O)c1cc(Cl)ccc1Cl [compound 22, 2,5-Dichloro-N-(2,4-dichloro-6-methylphenyl)-N-ethylbenzenesulfonamide]",>5,>13,less active,–
"2,5-Dichloro-N-(4-chloro-2-methylphenyl)benzamide [compound 51]",–,–,–,activity under the assay conditions (WSN-PB2-Nanoluc virus): inactive
"C#CCN(c1ccccc1C)S(=O)(=O)c1cc(Cl)ccc1Cl [compound 5, 2,5-Dichloro-N-(prop-2-yn-1-yl)-N-(o-tolyl)benzenesulfonamide]",>5,>13,–,–
"Cc1cc(Cl)ccc1N(CC1CC1)S(=O)(=O)c1cc(Cl)ccc1Cl [compound 15, 2,5-Dichloro-N-(4-chloro-2-methylphenyl)-N-(cyclopropylmethyl)benzenesulfonamide]",>5,>10,–,less active than the N-ethyl version (12) (A/WSN/33): greater than 10 ×
"C#CCN(c1ccc(Cl)cc1C)S(=O)(=O)c1cc(Cl)ccc1Cl [compound 14, 2,5-Dichloro-N-(4-chloro-2-methylphenyl)-N-(prop-2-yn-1-yl)benzenesulfonamide]",>5,>42,generally more potent,–
